Legend:
human plasma kallikrein = biological target: T1, human plasma kallikrein (Homo sapiens, UniProt P03952); assay: Inhibition of human plasma kallikrein, Ki; format: biochemical
T1 construct: purchased Sigma (St. Louis, Mo.)
Protocol: (§1) After 30 min. incubation at 37° C., 25 μl of 20 mM GPK-AMC was added and the change in fluorescence monitored. […] After 30 min. at 37° C., 5 μl of 20 mM PFR-AMC was added and the change in fluorescence monitored.

human factor Xa = biological target: T2, human factor Xa (Homo sapiens, UniProt P00742); assay: Inhibition of human factor Xa; format: biochemical; settings: Table 3; factor Xa (0.87 nM); LGR-AMC (0.6 mM)
T2 construct: purchased American Diagnostica, Inc, Greenwich, Conn
Protocol: (§2) After 5 min. at 37° C., 30 ul of 20 mM LGR-AMC (Sigma) was added and the change in fluorescence monitored. […] After 5 min. at 37° C., 35 ul of 20 mM GGR-AMC (Sigma) was added and the change in fluorescence monitored.

human plasmin = biological target: T3, human plasmin (Homo sapiens, UniProt P00747); assay: Inhibition of human plasmin, Ki; format: biochemical; settings: Table 3; Human Plasmin (50 pM); GPK-AMC (0.5 mM)
T3 construct: purchased Sigma (St. Louis, Mo.)
Protocol: as §1

human tissue kallikrein = biological target: T4, human tissue kallikrein (Homo sapiens, UniProt P06870); assay: Inhibition of human tissue kallikrein, Ki; format: biochemical; settings: Table 3; Human Tissue Kallikrein (0.35 nM); PFR-AMC (10 μM)
T4 construct: purchased Bayer, Germany
Protocol: After 5 min. at 37° C., 5 ul of 2 mM PFR-AMC was added achieving 10 uM final and the change in fluorescence monitored. The Km for PFR-AMC with human tissue kallikrein under the conditions employed was 5.7 uM.
After 5 min. at 37° C., 5 μl of 2 mM PFR-AMC was added and the change in fluorescence monitored.
After 5 min. at 37° C., 5 ul of 2 mM PFR-AMC was added achieving 10 uM final concentration and the change in fluorescence monitored.

Bovine chymotrypsin = Bovine chymotrypsin (Bos taurus, UniProt P00766); assay: Inhibition of chymotrypsin, Ki; format: biochemical
human urokinase = biological target: T5, human urokinase (Homo sapiens, UniProt P00749); assay: Inhibition of human urokinase, Ki; format: biochemical; settings: Table 3, GGR-AMC (0.7 mM)
T5 construct: purchased Sigma
Protocol: as §2

[1] = biological target: T6, human neutrophil elastase (Homo sapiens, UniProt P08246); assay: Inhibition of human neutrophil elastase, Ki (Dixon plots); format: biochemical
T6 sequence (P08246 30-267): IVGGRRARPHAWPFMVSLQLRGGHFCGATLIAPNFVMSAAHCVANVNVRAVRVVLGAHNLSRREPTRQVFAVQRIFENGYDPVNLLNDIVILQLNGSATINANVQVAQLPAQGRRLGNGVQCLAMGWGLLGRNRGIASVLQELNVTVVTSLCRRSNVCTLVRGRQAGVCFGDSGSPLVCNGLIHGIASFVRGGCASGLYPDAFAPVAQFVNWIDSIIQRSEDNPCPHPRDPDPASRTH
Protocol: […] Ki values were determined from Dixon plots of the form 1/V versus performed at two different substrate concentrations (Dixon et al., 1979).

[2] = Isoelectric point by isoelectric focusing; format: physicochemical
Protocol: After staining, the migration distance from the cathodic edge of the gel to the different protein bands was measured. The pI of each unknown was determined by using a standard curve generated by a plot of the migration distance of standards versus the corresponding pI's. […] (Tenstad et al., 1994, Acta Physiol. Scand. 152: 33-50).

[3] = biological target: bovine pancreatic kallikrein; assay: Inhibition of bovine pancreatic kallikrein, Ki; format: biochemical; settings: Table 4A; Bovine Pancreatic Kallikrein (92.0 pM)
Protocol: After 5 min. at 37° C., 15 μl of 2 mM GPK-AMC was added and the change in fluorescence (as above) was monitored. […] After 5 min. incubation at 37° C., 25 μl of 20 mM GPK-AMC was added and the change in fluorescence monitored. […] After 5 min. at 37° C. 15 μl of 20 mM PFR-AMC was added and the change in fluorescence monitored.

T1 sequence (P03952 391-638 limits assumed): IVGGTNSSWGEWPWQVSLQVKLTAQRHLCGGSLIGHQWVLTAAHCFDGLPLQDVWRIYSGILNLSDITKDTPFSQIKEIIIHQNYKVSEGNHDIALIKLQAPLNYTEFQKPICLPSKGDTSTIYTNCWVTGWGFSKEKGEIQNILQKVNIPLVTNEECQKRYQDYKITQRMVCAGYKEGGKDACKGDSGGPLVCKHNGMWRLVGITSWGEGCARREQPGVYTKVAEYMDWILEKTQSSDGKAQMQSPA
T1 sequence (P03952 20-390 partner limits assumed): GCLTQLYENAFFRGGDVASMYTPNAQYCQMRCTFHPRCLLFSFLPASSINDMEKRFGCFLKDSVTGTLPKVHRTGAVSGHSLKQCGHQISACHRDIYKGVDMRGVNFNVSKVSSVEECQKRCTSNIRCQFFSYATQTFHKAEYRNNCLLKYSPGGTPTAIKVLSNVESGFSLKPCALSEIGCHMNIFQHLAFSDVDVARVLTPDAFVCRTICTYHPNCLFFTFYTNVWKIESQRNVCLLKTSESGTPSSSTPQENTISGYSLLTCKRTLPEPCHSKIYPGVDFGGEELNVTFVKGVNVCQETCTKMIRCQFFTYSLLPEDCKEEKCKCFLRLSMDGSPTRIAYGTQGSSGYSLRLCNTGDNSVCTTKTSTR
T3 sequence (P00747 581-810 limits assumed): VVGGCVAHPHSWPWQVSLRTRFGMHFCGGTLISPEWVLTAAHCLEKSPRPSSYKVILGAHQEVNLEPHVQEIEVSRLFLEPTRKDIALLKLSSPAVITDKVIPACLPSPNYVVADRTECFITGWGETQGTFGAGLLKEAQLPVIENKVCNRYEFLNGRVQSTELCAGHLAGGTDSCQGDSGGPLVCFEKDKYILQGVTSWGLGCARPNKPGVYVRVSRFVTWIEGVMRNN
T3 sequence (P00747 97-580 partner limits assumed): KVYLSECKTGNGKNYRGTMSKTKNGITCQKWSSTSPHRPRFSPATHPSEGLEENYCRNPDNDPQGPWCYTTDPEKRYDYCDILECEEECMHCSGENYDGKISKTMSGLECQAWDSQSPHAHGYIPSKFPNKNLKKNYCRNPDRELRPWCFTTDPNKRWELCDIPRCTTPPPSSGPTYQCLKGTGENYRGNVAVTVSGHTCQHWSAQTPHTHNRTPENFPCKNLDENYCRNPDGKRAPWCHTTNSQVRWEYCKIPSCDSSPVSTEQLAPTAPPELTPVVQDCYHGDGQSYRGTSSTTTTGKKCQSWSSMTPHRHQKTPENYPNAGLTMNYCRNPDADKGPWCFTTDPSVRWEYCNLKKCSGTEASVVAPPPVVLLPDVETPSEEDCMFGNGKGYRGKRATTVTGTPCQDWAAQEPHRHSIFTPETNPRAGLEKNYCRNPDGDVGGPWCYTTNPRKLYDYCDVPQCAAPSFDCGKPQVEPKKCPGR
T2 sequence (P00742 235-488 limits assumed): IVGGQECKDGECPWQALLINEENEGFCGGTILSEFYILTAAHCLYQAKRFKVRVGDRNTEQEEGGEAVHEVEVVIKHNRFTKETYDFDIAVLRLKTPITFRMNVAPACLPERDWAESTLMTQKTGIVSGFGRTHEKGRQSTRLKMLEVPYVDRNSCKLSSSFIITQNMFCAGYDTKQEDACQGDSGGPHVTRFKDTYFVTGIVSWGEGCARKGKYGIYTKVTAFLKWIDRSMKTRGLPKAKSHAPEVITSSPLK
T2 sequence (P00742 41-179 partner limits assumed): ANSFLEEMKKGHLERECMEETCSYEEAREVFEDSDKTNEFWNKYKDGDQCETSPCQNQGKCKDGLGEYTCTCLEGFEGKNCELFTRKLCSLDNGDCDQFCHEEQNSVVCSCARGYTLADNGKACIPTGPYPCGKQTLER
T4 sequence (P06870 25-262): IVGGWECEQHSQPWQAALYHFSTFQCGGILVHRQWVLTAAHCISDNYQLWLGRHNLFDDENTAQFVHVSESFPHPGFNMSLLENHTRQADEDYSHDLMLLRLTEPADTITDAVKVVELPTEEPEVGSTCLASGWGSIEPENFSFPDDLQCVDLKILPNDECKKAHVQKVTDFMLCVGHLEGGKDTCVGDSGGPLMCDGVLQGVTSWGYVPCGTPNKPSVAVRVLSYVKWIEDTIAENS

Compound	Ki (human plasma kallikrein; Table 3, Human Plasma Kallikrein (2.5 nM), PFR-AMC (0.3 mM))	Ki (human plasma kallikrein; Table 4A, Human Plasma Kallikrein (2.5 nM))	Ki (human plasma kallikrein; Table 4B, Human Plasma Kallikrein ([…] nM))	Ki (human factor Xa)	Ki (human plasmin)	Ki (human tissue kallikrein)	Ki (Bovine chymotrypsin; Table 3, Chymotrypsin (5 nM), AAPF-pNA (0.08 mM))	Ki (Bovine chymotrypsin; Table 4A, Bovine chymotrypsin (5 nM))	Ki (human urokinase)	Ki ([1]; Table 3, Human Neutrophil Elastase (19 nM))	pI ([2]; first preparation of bikunin (7-64) (possibly not completely deprotected), migrated to the cathodic edge of the gel (pH 9.5))	pI ([2]; refolded purified protein, Ampholine PAGplate (pH 3.5 to 9.5))	Ki [3]	Ki ([1]; Table 4A, elastase)
CC[C@H](C)[C@@H]1NC(=O)[C@H](Cc2ccccc2)NC(=O)[C@H](CC(N)=O)NC(=O)[C@H](CC(N)=O)NC(=O)[C@@H]2CSSC[C@@H]3NC(=O)[C@H](C)NC(=O)[C@H](CCC(=O)O)NC(=O)[C@H](CCC(=O)O)NC(=O)[C@H](CO)NC(=O)[C@H](CCCNC(=N)N)NC(=O)[C@H](Cc4ccc(O)cc4)NC(=O)[C@H](CO)NC(=O)[C@H](CC(N)=O)NC(=O)[C@H](CCCCN)NC(=O)[C@H](CC(N)=O)NC(=O)CNC(=O)[C@H](CCCNC(=N)N)NC(=O)[C@H](CSSC[C@H](NC(=O)[C@@H]4CCCN4C(=O)CNC(=O)[C@H]([C@@H](C)O)NC(=O)[C@H](C(C)C)NC(=O)[C@H](C)NC(=O)[C@H](CC(N)=O)NC(=O)[C@H](C)NC(=O)[C@H]([C@@H](C)O)NC(=O)[C@@H](NC(=O)[C@H](Cc4ccc(O)cc4)NC(=O)[C@H](CCC(=O)O)NC(=O)[C@H](CCC(=O)O)NC(=O)[C@@H](N)Cc4ccc(O)cc4)CSSC[C@@H](C(=O)N[C@@H](Cc4ccccc4)C(=O)N[C@@H](CCCNC(=N)N)C(=O)N[C@@H](CCC(N)=O)C(=O)O)NC(=O)[C@H](CCCNC(=N)N)NC(=O)[C@H](CC(C)C)NC(=O)[C@H](CCSC)NC3=O)C(=O)N[C@@H](CCCNC(=N)N)C(=O)N[C@@H](C)C(=O)N[C@@H](CO)C(=O)N[C@@H](Cc3ccccc3)C(=O)N3CCC[C@H]3C(=O)N[C@@H](CCCNC(=N)N)C(=O)N[C@@H](Cc3c[nH]c4ccccc34)C(=O)N[C@@H](Cc3ccc(O)cc3)C(=O)N[C@@H](Cc3ccccc3)C(=O)N[C@@H](CC(=O)O)C(=O)N[C@@H](C(C)C)C(=O)N[C@@H](CCC(=O)O)C(=O)N[C@@H](CCCNC(=N)N)C(=O)N[C@@H](CC(N)=O)C(=O)N[C@@H](CO)C(=O)N2)NC(=O)CNC(=O)CNC(=O)[C@H](Cc2ccc(O)cc2)NC1=O [Bikunin (102-159)]	0.3 nM	0.3 nM	0.7 nM	274 nM	1.8 nM	0.13 nM	0.24 nM	0.2 nM	11000 nM	323 nM				
CC[C@H](C)[C@H](N)C(=O)N[C@@H](Cc1c[nH]cn1)C(=O)N[C@@H](CC(=O)O)C(=O)N[C@@H](Cc1ccccc1)C(=O)N[C@H]1CSSC[C@@H](C(=O)N[C@@H](C)C(=O)N[C@H](C(=O)N[C@H](C(=O)O)C(C)C)[C@@H](C)O)NC(=O)[C@H](CCCCN)NC(=O)[C@H](CCCCN)NC(=O)[C@H](CC(C)C)NC(=O)[C@@H]2CSSC[C@@H]3NC(=O)[C@H](CO)NC(=O)CNC(=O)[C@H](CC(=O)O)NC(=O)[C@H]([C@@H](C)O)NC(=O)[C@H](C(C)C)NC(=O)[C@H](CC(N)=O)NC(=O)[C@H](Cc4ccc(O)cc4)NC(=O)[C@H](Cc4c[nH]c5ccccc45)NC(=O)[C@H](Cc4c[nH]c5ccccc45)NC(=O)[C@H](CCCNC(=N)N)NC(=O)[C@@H]4CCCN4C(=O)[C@H](CCSC)NC(=O)[C@H](CO)NC(=O)[C@H](C)NC(=O)[C@H](CCCNC(=N)N)NC(=O)[C@H](CSSC[C@H](NC(=O)CNC(=O)CNC(=O)[C@H](Cc4ccc(O)cc4)NC(=O)[C@H](C(C)C)NC(=O)[C@H](Cc4ccccc4)NC(=O)[C@H](CC(C)C)NC(=O)[C@H](CCC(N)=O)NC3=O)C(=O)N[C@@H](CC(=O)O)C(=O)NCC(=O)N[C@@H](CC(N)=O)C(=O)N[C@@H](CO)C(=O)N[C@@H](CC(N)=O)C(=O)N[C@@H](CC(N)=O)C(=O)N[C@@H](Cc3ccc(O)cc3)C(=O)N[C@@H](CC(C)C)C(=O)N[C@@H]([C@@H](C)O)C(=O)N[C@@H](CCCCN)C(=O)N[C@@H](CCC(=O)O)C(=O)N[C@@H](CCC(=O)O)C(=O)N2)NC(=O)[C@H](CCCNC(=N)N)NC(=O)CNC(=O)[C@H](C(C)C)NC(=O)[C@H](C(C)C)NC(=O)[C@H](CCCCN)NC(=O)[C@H](CO)NC(=O)[C@H](C(C)C)NC(=O)[C@H](CC(C)C)NC1=O [bikunin (7-64)]											much higher than the predicted value	8.85	0.4 nM	> 100 nM
